# Measurements from patent US20170168056A1, “METHODS AND COMPOSITIONS FOR DETECTING AND MODULATING CANCER CELLS” (Massachusetts Institute of Technology, priority 2015, published 2017).
# Columns and labels:
# [1] = tested on: human breast cancer cell lines; experiment: Cell viability (Taxol/paclitaxel efficacy) across a panel of breast cancer cell lines versus endogenous Mena expression; assay type: cell-based; settings: 9 breast cancer cell lines, 72 h treatment
# From the text: Endogenous levels of Mena in breast cancer cell lines correlate with their resistance to Taxol treatment. Initial experiments relied on ectopic expression in a single cell line, we examined a panel breast cancer cell lines with differing levels of endogenous Mena expression for sensitivity to Taxol. […] Essentially, low endogenous Mena correlates with low resistance/reduced viability in Taxol treated cells, while high endogenous Mena correlates with high resistance/viability in Taxol treated cells (FIG. 1F).
# Cell viability assay. […] All measurements were repeated in triplicate.
# MENA and MENA^INV are associated with increased survival during paclitaxel treatment in vitro. Whether endogenous MENA and MENA^INV expression levels were associated with paclitaxel resistance was examined. MENA and MENA^INV were determined to be widely expressed in all main breast cancer subtypes, as measured by mRNA from TCGA samples, as well as at the protein level by immunohistochemistry (FIGS. 28A, 28B, 28C), with slightly higher expression in patients with Her2+ breast cancer. […] Under the conditions we used, MENA11a co-migrates with the 80 kDa MENA, thus the intensity of the measured the 80 kDa MENA, detected with an antibody known to recognize all MENA isoforms, represents the total amount of 80 kDa MENA plus MENA11a in the cell lines that express both isoforms. […]
# microtubules (MT) = experiment: Immunofluorescence ratio of Glu-MT (stable) to Tyr-MT (dynamic); assay type: cell-based, human
# Protocol: Immunofluorescence. Glass bottom dishes (Mattek) were coated with Collagen at 0.1 mg/mL diluted in PBS and 50 μg/mL FN for 1 hour at 37° C. Cells were plated for 1 hour, and then treated with paclitaxel alone or in combination with MEKi for 24 hours. Cells were fixed for 20 minutes in 4% paraformaldehyde in PHEM buffer with 0.1% Gluteraldehyde, and then quenched with sodium borohydrate for 5 minutes. Cells were blocked with 2% BSA in TBS-0.1%TritonX-100 for 30 minutes, and incubated with primary antibodies and then secondary antibodies for 1 hour each, at room temperature. Z series of images were taken on an Applied Precision DeltaVision microscope using Softworx acquisition, an Olympus 60×1.4 NA plan apo objective and a Photometrics CoolSNAP HQ camera. Images were deconvolved using Deltavision Softworx software and objective specific point spread function. Images were analyzed with ImageJ, where the whole cell intensity levels of Tyr- or Glu-MT was measured. Images are pooled from at least 3 independent experiments.
# Paclitaxel promotes cell death by increasing the stability of MTs, and pathways driving increased MT dynamics are known to promote resistance to taxanes. Therefore, MT structure and dynamics in MENA isoform expressing cells was examined during paclitaxel treatment. […] Post-translational modification of MTs can regulate their dynamics, and antibodies that detect such modifications can be used to infer the relative dynamics of MT populations; in particular, MT tyrosination indicates a dynamic MT state, while de-tyrosination of MTs is associated with increased stability. The relative abundance of stable (Glu-MT) vs. dynamic (Tyr-MT) MTs was measured in individual cells by immunofluorescence with anti-Glu-MT and anti-Tyr-MT antibodies (FIGS. 37A, 37B).
# (§1) The MAPK signaling cascade is among the key pathways known to interact with MTs. Both ERK1/2 interact with MTs; MT stabilization by paclitaxel increases ERK phosphorylation and, in turn, ERK pathway activation increases MT dynamics.
# [2] = tested on: MDA-MB-231 xenograft tumors; experiment: Ki67 and cleaved caspase-3 immunostaining of xenograft tumor sections; assay type: in vivo, mouse; settings: for proliferation (Ki67) in control tumors: MDA-MB-231 control tumors; for proliferation (Ki67) in control tumors / proliferation (Ki67) in Mena and Mena^INV tumors: vs vehicle; for proliferation (Ki67) in Mena and Mena^INV tumors: Mena- and Mena^INV-expressing tumors; for apoptosis (cleaved caspase-3, CC3): all three types of tumor
# From the text: The effects of increased Mena/Mena^INV levels on taxol treatment in vitro (increased fractions of viable cells) and in vivo (resistance to anti-tumor growth effects) could arise from increased proliferation, decreased apoptosis or both. To evaluate the effects of Mena/Mena^INV on proliferation and cell death, tumor sections were stained with antibodies to Ki67 (a proliferation marker) and cleaved caspase-3 (apopotic marker). […] Therefore, elevated Mena/Mena^INV expression allows continued tumor growth in treated animals by blocking the anti-proliferative effects of taxol treatment.
# Immunohistochemistry for Examples 16-22. Tumors dissected from NOD/SCID mice were fixed in 10% buffered formalin and embedded in paraffin. Tissue sections (5 μm thick) were deparaffinized followed by antigen retrieval using Citra Plus solution (Biogenex). After treatment with 3% H2O2, sections were blocked with serum, incubated with primary antibodies overnight at 4° C. and fluorescently labeled secondary antibodies at room temperature for 2 hours. Sections were stained using anti-MENA (1:500), biotinylated anti-MENA^INV (1:500), anti-CC3 (1:200), anti-Ki67 (1:200) and DAPI. Fluorochromes on secondary antibodies included AlexaFluor 488, 594 or 647 (Jackson Immunoresearch). Sections were mounted in Fluoromount mounting media and imaged at room temperature. Z series of images were taken on a DeltaVision microscope using Softworx acquisition, an Olympus 40×1.3 NA plan apo objective and a Photometrics CoolSNAP HQ camera. At least 10 fields were captured for each tumor, with at least 3 tumors per tumor group.
# As such, proliferation and apoptosis was examined by quantifying the intensity of cells positive for Ki67 and CC3, respectively by immunostaining.
# ERK, Akt = experiment: Western blot for pERK Y204, ERK, pAkt473 and Akt; assay type: cell-based, human
# Protocol: Western blot. Cells were lysed in 25 mM Tris, 150 mM NaCl, 10% glycerol, 1% NP 40 and […] EDTA with a protease Mini-complete protease inhibitors (Roche) and a phosphatase inhibitor cocktail (PhosSTOP, Roche) at 4° C. for 20 minutes. Protein lysates were separated by SDS-PAGE, transferred to a nitrocellulose membrane and blocked with Odyssey Blocking Buffer (LiCor). Membranes were incubated with primary antibody overnight at 4° C. and Licor secondary antibodies at room temperature for 1 hour. Protein level intensity was measured with Image J.
# as §1
# MDA-MB-231 cells = experiment: Proliferation assay (cell count) with combinations of paclitaxel and MEKi; assay type: cell-based, human; settings: 231-MENA and 231-MENA^INV cells
# [3] = 72 hours of paclitaxel treatment, all three cell lines
smiles,measurement,setting,value
CC(=O)O[C@H]1C(=O)[C@@]2(C)[C@H]([C@H](OC(=O)c3ccccc3)[C@]3(O)C[C@H](OC(=O)[C@H](O)[C@@H](NC(=O)c4ccccc4)c4ccccc4)C(C)=C1C3(C)C)[C@]1(OC(C)=O)CO[C@@H]1C[C@@H]2O [paclitaxel],correlation between drug efficacy (cell survival) and endogenous Mena expression,[1],significant inverse correlation
same,correlation between drug efficacy (cell survival) and endogenous Mena expression,[1]; listed as Taxol,highly significant anti-correlation
same,relative ratio of stable (Glu-MT) to dynamic (Tyr-MT) MTs,"microtubules (MT); 231-Control cells, 10 nM paclitaxel 24 hours",significant increase
same,relative levels of stable to dynamic MTs,"microtubules (MT); 231-MENA and 231-MENA^INV cells, 10 nM paclitaxel 24 hours",no change
same,"stable MTs relative to dynamic MTs, either drug alone","microtubules (MT); 231-MENA^INV cells, single drug, 24 hours",had no effect
same,proliferation (Ki67) in control tumors,[2],decreased the amount of Ki67 staining
same,proliferation (Ki67) in control tumors,[2]; listed as Taxol,significantly decreased
same,proliferation (Ki67) in Mena and Mena^INV tumors,[2],failed to decrease the numbers of Ki67-positive cells
same,proliferation (Ki67) in Mena and Mena^INV tumors,[2]; listed as Taxol,failed to decrease proliferation
same,"apoptosis (cleaved caspase-3, CC3)",[2],increase in cell death as marked by CC3 positive cells in all tumors
same,"apoptosis (cleaved caspase-3, CC3)",[2]; listed as Taxol,"similar, significant apoptotic responses"
same,total ERK levels,"ERK, Akt; 72 hours of paclitaxel treatment",unchanged
same,pERK Y204 levels,"ERK, Akt; 72 hours of paclitaxel treatment (10 or 100 nM)",231-MENA and 231-MENA^INV cells had higher levels of pERK Y204 relative to 231-Control cells
same,pAkt473 levels,"ERK, Akt; [3]",decreased pAkt473 levels equally
same,total Akt levels,"ERK, Akt; [3]",without significantly changing
same,concentrations needed to obtain high levels of cell death relative to 231-Control cells,MDA-MB-231 cells,higher concentrations of each drug were needed
